From patent US20170276611A1, “CHALCOGENOPYRYLIUM DYES, COMPOSITIONS COMPRISING SAME, COMPOSITE NANOPARTICLES COMPRISING SAME, AND METHODS OF MAKING AND USING THE SAME” (The Research Foundation for The State University of New York, priority 2014, published 2017)

Test: UV/VIS-near-IR absorption of the dyes
Type: physicochemical
Details: for ε (CH2Cl2): molar extinction coefficient in CH2Cl2
Experimental: Synthetic Methods. All reactions were performed open to air unless otherwise noted. Concentration in vacuo was performed on a rotary evaporator. NMR spectra were recorded at 300 or 500 MHz for ^1H and at 75.5 MHz for ^13C with residual solvent signal as internal standard. UV/VIS-near-IR spectra were recorded in quartz cuvettes with a 1-cm path length. Melting points were determined with a capillary melting point apparatus and are uncorrected. […] Pyranones 16b-16d are known compounds (J. Heterocycl. Chem. 1999, 36, 707-717). The synthesis of thiopyranone 16a and 4-methylpyrylium salt 15c is shown in Scheme 2. 4-Methylpyrylium salts 15a, 15d, and 15e have been reported previously in the literature (J. Org. Chem. 1982, 47, 5235-5239; Organometallics 1988, 7, 1131-1147; Dyes Pigm. 2000, 45, 1-7).

[1] = Table 2, Example 2 dyes, CH2Cl2

Compound	λmax (CH2Cl2) (absorption maximum in CH2Cl2)	ε (CH2Cl2)	Log (ε) (Table 2, Example 2 dyes)	λmax (CH2Cl2) [1]
C(=C1C=C(c2ccccc2)SC(c2ccccc2)=C1)c1cc(-c2cccs2)[s+]c(-c2cccs2)c1.F[P-](F)(F)(F)(F)F [Dye 1]	653 nm	130000 M⁻¹ cm⁻¹	–	–
C(=Cc1cc(-c2ccccc2)[se+]c(-c2ccccc2)c1)C=C1C=C(c2ccccc2)SC(c2ccccc2)=C1.F[P-](F)(F)(F)(F)F [Dye 1b, 4-(3-(2,6-diphenyl-4H-thiopyran-4-ylidene)prop-1-enyl)-2,6-diphenylselenopyrylium hexafluorophosphate]	–	–	5.30	784 nm
C(=C1C=C(c2ccccc2)[Se]C(c2ccccc2)=C1)c1cc(-c2cccs2)[s+]c(-c2cccs2)c1.F[P-](F)(F)(F)(F)F [Dye 2, 4-((2,6-diphenyl-4H-selenopyran-4-ylidene)methyl)-2,6-di(thiophen-2-yl)thiopyrylium hexafluorophosphate]	676 nm	130000 M⁻¹ cm⁻¹	–	–
C(=Cc1cc(-c2ccccc2)[se+]c(-c2ccccc2)c1)C=C1C=C(c2cccs2)SC(c2cccs2)=C1.F[P-](F)(F)(F)(F)F [Dye 2a, 4-(3-(2,6-dithiophen-2-yl-4H-thiopyran-4-ylidene)prop-1-enyl)-2,6-diphenylselenopyrylium hexafluorophosphate]	–	–	5.40	810 nm
C(=Cc1cc(-c2ccccc2)[s+]c(-c2ccccc2)c1)C=C1C=C(c2cccs2)SC(c2cccs2)=C1.F[P-](F)(F)(F)(F)F [Dye 2b, 4-(3-(2,6-dithiophen-2-yl-4H-thiopyran-4-ylidene)prop-1-enyl)-2,6-diphenylthiopyrylium hexafluorophosphate]	–	–	5.34	789 nm
C(=Cc1cc(-c2cccs2)[s+]c(-c2cccs2)c1)C=C1C=C(c2cccs2)SC(c2cccs2)=C1.F[P-](F)(F)(F)(F)F [Dye 3, 4-(3-(2,6-dithiophen-2-yl-4H-thiopyran-4-ylidene)prop-1-enyl)-(2,6-dithiophen-2-yl)thiopyrylium hexafluorophosphate]	–	–	5.45	813 nm
C(=C1C=C(c2ccccc2)[Se]C(c2ccccc2)=C1)c1cc(-c2cccs2)[se+]c(-c2cccs2)c1.F[P-](F)(F)(F)(F)F [Dye 3, 4-((2,6-diphenyl-4H-selenopyran-4-ylidene)methyl)-2,6-di(thiophen-2-yl)selenopyrylium hexafluorophosphate]	699 nm	150000 M⁻¹ cm⁻¹	–	–
C(=C1C=C(c2cccs2)SC(c2cccs2)=C1)c1cc(-c2cccs2)[s+]c(-c2cccs2)c1.F[P-](F)(F)(F)(F)F [Dye 4, 4-((2,6-di(thiophen-2-yl)-4H-thiopyran-4-ylidene)methyl)-2,6-di(thiophen-2-yl)thiopyrylium hexafluorophosphate]	676 nm	120000 M⁻¹ cm⁻¹	–	–
C(=C1C=C(c2cccs2)SC(c2cccs2)=C1)c1cc(-c2cccs2)[se+]c(-c2cccs2)c1.F[P-](F)(F)(F)(F)F [Dye 5, 4-((2,6-di(thiophen-2-yl)-4H-thiopyran-4-ylidene)methyl)-2,6-di(thiophen-2-yl)selenopyrylium hexafluorophosphate]	698 nm	110000 M⁻¹ cm⁻¹	–	–
C(=C1C=C(c2cccs2)[Se]C(c2cccs2)=C1)c1cc(-c2cccs2)[se+]c(-c2cccs2)c1.F[P-](F)(F)(F)(F)F [Dye 6, 4-((2,6-di(thiophen-2-yl)-4H-selenopyran-4-ylidene)methyl)-2,6-di(thiophen-2-yl)selenopyrylium hexafluorophosphate]	724 nm	130000 M⁻¹ cm⁻¹	–	–
C(=C1C=C(c2ccccc2)SC(c2ccccc2)=C1)c1cc(-c2ccc[se]2)[s+]c(-c2ccc[se]2)c1.F[P-](F)(F)(F)(F)F [Dye 7, 4-((2,6-diphenyl-4H-thiopyran-4-ylidene)methyl)-2,6-di(selenophen-2-yl)thiopyrylium hexafluorophosphate]	659 nm	140000 M⁻¹ cm⁻¹	–	–
C(=C1C=C(c2ccc[se]2)SC(c2ccc[se]2)=C1)c1cc(-c2ccc[se]2)[s+]c(-c2ccc[se]2)c1.F[P-](F)(F)(F)(F)F [Dye 8, 4-((2,6-di(selenophen-2-yl)-4H-thiopyran-4-ylidene)methyl)-2,6-di(selenophen-2-yl)thiopyrylium hexafluorophosphate]	687 nm	110000 M⁻¹ cm⁻¹	–	–
C(=Cc1cc(-c2ccccc2)[se+]c(-c2ccccc2)c1)C=C1C=C(c2ccccc2)[Se]C(c2ccccc2)=C1.F[P-](F)(F)(F)(F)F [Dye 9, 4-(3-(2,6-diphenyl-4H-selenopyran-4-ylidene)prop-1-enyl)-2,6-diphenylselenopyrylium hexafluorophosphate]	806 nm	250000 M⁻¹ cm⁻¹	–	–
C(=Cc1cc(-c2ccccc2)[se+]c(-c2ccccc2)c1)C=C1C=C(c2ccccc2)SC(c2ccccc2)=C1.F[P-](F)(F)(F)(F)F [Dye 10, 4-(3-(2,6-diphenyl-4H-thiopyran-4-ylidene)prop-1-enyl)-2,6-diphenylselenopyrylium hexafluorophosphate]	784 nm	200000 M⁻¹ cm⁻¹	–	–
C(=Cc1cc(-c2ccccc2)[se+]c(-c2ccccc2)c1)C=C1C=C(c2cccs2)SC(c2cccs2)=C1.F[P-](F)(F)(F)(F)F [Dye 11, 4-(3-(2,6-dithiophen-2-yl-4H-thiopyran-4-ylidene)prop-1-enyl)-2,6-diphenylselenopyrylium hexafluorophosphate]	810 nm	250000 M⁻¹ cm⁻¹	–	–
C(=Cc1cc(-c2ccccc2)[s+]c(-c2ccccc2)c1)C=C1C=C(c2cccs2)SC(c2cccs2)=C1.F[P-](F)(F)(F)(F)F [Dye 12, 4-(3-(2,6-dithiophen-2-yl-4H-thiopyran-4-ylidene)prop-1-enyl)-2,6-diphenylthiopyrylium hexafluorophosphate]	789 nm	220000 M⁻¹ cm⁻¹	–	–
C(=Cc1cc(-c2cccs2)[s+]c(-c2cccs2)c1)C=C1C=C(c2cccs2)SC(c2cccs2)=C1.F[P-](F)(F)(F)(F)F [Dye 13, 4-(3-(2,6-dithiophen-2-yl-4H-thiopyran-4-ylidene)prop-1-enyl)-(2,6-dithiophen-2-yl)thiopyrylium hexafluorophosphate]	813 nm	280000 M⁻¹ cm⁻¹	–	–
C(=Cc1cc(-c2ccc[se]2)[s+]c(-c2ccc[se]2)c1)C=C1C=C(c2ccc[se]2)SC(c2ccc[se]2)=C1.F[P-](F)(F)(F)(F)F [Dye 14, 4-(3-(2,6-di(selenophen-2-yl)-4H-thiopyran-4-ylidene)prop-1-en-1-yl)-2,6-di(selenophen-2-yl)thiopyrylium hexafluorophosphate]	826 nm	230000 M⁻¹ cm⁻¹	–	–
C1=C(c2ccccc2)Sc2ccccc2/C1=C/C=C/C1=CC(c2ccccc2)=[SH]c2ccccc21 [Dye 15, 2-phenyl-4-((E)-3-((E)-2-phenyl-4H-thiochromen-4-ylidene)prop-1-en-1-yl)thiochromenylium hexafluorophosphate]	789 nm	150000 M⁻¹ cm⁻¹	–	–
